{"source": "patent US20220175955A1", "about": "“PEPTIDE DISPLAY TO ANTIGEN PRESENTING CELLS USING LIPID VEHICLE” (Torque Therapeutics Inc., priority 2018, published 2022)", "tested_on": "CD11c+ BMDCs", "assay": "Antigen presentation (MHC I:SIINFEKL) on antigen-pulsed BMDCs in vitro, flow cytometry", "type": "cell-based, mouse", "settings": "1 μM epitope; later time points (48 h to 96 h); FIG. 1", "description": "Bone marrow derived dendritic cells (BMDCs) were differentiated in vitro before antigen pulsing. Bone marrow cells were isolated from tibia and femur from C57bl/6 JrJ mice obtained from Janvier SAS. After sacrificing the mice by cervical dislocation, bones were isolated and kept in tissue storage solution (MACS Miltenyi). After a 2 min sterilization in 70% ethanol, bones were cut at each end with a scalpel end flushed with medium by using a 29 g insulin syringe. Following isolation, bone marrow cells were cultured in complete RPMI 1640 medium supplemented with 20 ng/ml mouse recombinant GM-CSF. On day 3, cells were supplemented with fresh medium containing GM-CSF. On day 6, immature BMDCs were harvested, re-plated and incubated with 1 μM liposomal (MK062 or MK062 TMX) or soluble SIINFEKL epitope. BMDCs were harvested after 24 or 48 hours for flow cytometry analysis. […] After blocking for 5 min on ice, cells were stained with antibodies against the dendritic cell marker CD11c and assessed for antigen presentation by an antibody recognizing SIINFEKL presented on MHC I molecules (H-2kb). […]\n[…] After blocking for 5 min on ice, cells were stained with antibodies against the dendritic cell marker CD11c and assessed for antigen presentation by an antibody recognizing SIINFEKL presented on MHC I molecules (H-2kb). […]", "data": [{"sequence": "SIINFEKL (Synthetic antigen)", "values": [{"measurement": "Antigen presentation (MFI of MHC:SIINFEKL in CD11c+ BMDCs)", "result": "decreased markedly"}]}]}
